Source: patent publication US7052909B1, “Method for activating NKT cells using PIMs” (priority 1999, dated 2006)

Key:
[1] = test system: C57BL/6 mice; experiment: Formation of lesions of the granulomatous type after subcutaneous injection in mice; type: in vivo, mouse; conditions: s.c., adsorbed onto Alu-Gel-S
[2] = test system: NKT cells; experiment: NKT-cell recruitment at the site of injection, Vα14-Jα281 mRNA by RT-PCR and Immunoscope; type: in vivo, mouse; conditions: C57BL/6 mice, s.c., adsorbed on Alu-Gel-S, day 7, RT-PCR, compared with Alu-Gel-S alone

For `CC(=O)N[C@H]1C(O)O[C@H](CO)[C@@H](O)[C@@H]1O[C@H](C)C(=O)N[C@@H](C)C(=O)N[C@H](CCC(=O)O)C(N)=O` (mixture of isomers) [MDP, muramyl-dipeptide], the “cell infiltrate at site of injection” value [1] was “produced a cellular infiltrate” and the “activity of NKT-cell recruitment (Vα14-Jα281 mRNA)” value [2] was “without increasing the Vα14-Jα281 mRNA”.
